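Growth conditions: 96-well plates. Treatment: test compound, 48 hours, 5 concentrations. Analysis: linear interpolation between bracketing concentrations; unreached endpoints set to highest concentration. GI50 = concentration required for 50% inhibition of growth.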 Activity calls are given as the source filed them. Cut-off read from the data, not from the text of the source: active = GI50 up to about 1.1 µM and inactive = higher.

Some test systems named below: RXF 631; LXFL 529; DMS-114; DMS-273; XF498; HOP-18; KM-20L2; DLD-1; M19-MEL.
Assay in all cases: NCI-60 cell line screen, 48 h

Take `CN1C(=O)CC2(C)c3cc(O)ccc3N(C)C12` (centres undefined): the GI50 in the experiment with RXF 631 is > 100 µM (inactive); in the experiment on LXFL 529 it was 27.8 µM (inactive); in the experiment on DMS-114 it was 38.9 µM (inactive); in the experiment on DMS-273 it was > 100 µM (inactive); in the experiment with XF498, 17.3 µM (inactive); in the experiment on HOP-18, > 100 µM (inactive). The GI50 in the experiment on KM-20L2 was > 100 µM (inactive); in the experiment on DLD-1 it was > 89.3 µM (inactive); with M19-MEL, 11.5 µM (inactive).
`Cc1nn(C)c(=S)n(C)c1=O`: the GI50 was 0.515 µM (active) with LXFL 529; 0.269 µM (active) in the experiment on DMS-114; 0.427 µM (active) with DMS-273; 1.15 µM (inactive) with XF498; 0.43 µM (active) with HOP-18; 24.9 µM (inactive) with KM-20L2. The GI50 was 3.16 µM (inactive) in the experiment with DLD-1 and 0.624 µM (active) in the experiment on M19-MEL.
Take `C/C(CC(=O)Nc1ccc(Cl)cc1)=N\NC(N)=S`: the GI50 with RXF 631 was > 100 µM (inactive); with LXFL 529, 5.47 µM (inactive); in the experiment with DMS-114, 39.1 µM (inactive); in the experiment on DMS-273, 8.09 µM (inactive); in the experiment on XF498, > 100 µM (inactive); in the experiment with KM-20L2 it was 13.9 µM (inactive). For the same compound, the GI50 is 18.3 µM (inactive) with DLD-1 and 66.5 µM (inactive) in the experiment on M19-MEL.
Regarding `O=C(O)CCC1(Br)CCCCC(Br)C1=O` (centres undefined), the GI50 is > 100 µM (inactive) in the experiment on LXFL 529; > 100 µM (inactive) in the experiment on DMS-114; > 100 µM (inactive) in the experiment on DMS-273; > 100 µM (inactive) in the experiment with XF498; 32.8 µM (inactive) in the experiment on HOP-18; > 100 µM (inactive) with KM-20L2. For the same compound, the GI50 with M19-MEL was > 100 µM (inactive).
Consider `N/N=C(/Cc1nc2ccc(C(=O)c3ccccc3)cc2nc1O)C(=O)Nc1ccc([N+](=O)[O-])cc1[N+](=O)[O-]`, for which the GI50 with LXFL 529 was > 10 µM (inactive); in the experiment on DMS-114, > 10 µM (inactive); with DMS-273, > 10 µM (inactive); in the experiment with XF498 it was 8.07 µM (inactive); with HOP-18, 35.5 µM (inactive); in the experiment on KM-20L2, > 100 µM (inactive). Besides, the GI50 in the experiment with M19-MEL was > 10 µM (inactive).
On to `CC[C@@]1(O)C(=O)OCc2c1cc1n(c2=O)Cc2cc3cc4c(cc3nc2-1)OCO4`, for which the GI50 with RXF 631 is 0.0143 µM (active); in the experiment with LXFL 529 it was 0.0107 µM (active); with DMS-114 it was < 0.001 µM (active); in the experiment on DMS-273 it was < 0.001 µM (active); in the experiment on XF498, 0.0238 µM (active); in the experiment with HOP-18 it was 0.0429 µM (active). Also, the GI50 in the experiment on KM-20L2 was 0.0121 µM (active); with DLD-1, 0.0559 µM (active); with M19-MEL it was 0.00787 µM (active).
`O=[N+]([O-])c1cc(I)cc(/C=N/NS(=O)(=O)c2ccc(Cl)cc2)c1O`: the GI50 was 22.7 µM (inactive) with RXF 631; 19.4 µM (inactive) with LXFL 529; 19.8 µM (inactive) with DMS-273; 19.1 µM (inactive) in the experiment on HOP-18; 36 µM (inactive) with KM-20L2; 26 µM (inactive) in the experiment on DLD-1. The GI50 with M19-MEL was 25.2 µM (inactive).
Turning to `c1nc2cscc2c2cscc12`, the GI50 in the experiment on LXFL 529, in the experiment with DMS-114, with DMS-273, with XF498 and in the experiment on M19-MEL was > 100 µM (inactive) in each case.
Take `C[C@]12Cc3conc3C(O)=C1CC[C@@H]1C2CC[C@@]2(C)C1CC[C@@H]2O` (some centres undefined): the GI50 was 15 µM (inactive) with LXFL 529; 5.22 µM (inactive) with DMS-273; 15 µM (inactive) in the experiment with XF498; 41 µM (inactive) with HOP-18; 29.5 µM (inactive) in the experiment with KM-20L2; 11.7 µM (inactive) in the experiment on M19-MEL.
With `CC1(c2cccc3ccccc23)OC(=O)c2ccccc21` (centres undefined), the GI50 in the experiment on RXF 631 is 20.2 µM (inactive); with LXFL 529 it was 26.5 µM (inactive); in the experiment with DMS-114, 13.4 µM (inactive); in the experiment with DMS-273 it was 10.8 µM (inactive); in the experiment with XF498, 18.2 µM (inactive); with KM-20L2 it was 17.2 µM (inactive). Further, the results for the GI50 in the experiment on DLD-1 and in the experiment with M19-MEL were 22.5 µM (inactive) and 21.3 µM (inactive), respectively.
Take `C/C(=N\NC(N)=O)c1sc(-c2nc(C)c(/C(C)=N/NC(N)=O)s2)nc1C`: the GI50 with LXFL 529 was > 100 µM (inactive); in the experiment on DMS-273, 21.1 µM (inactive); with XF498 it was > 100 µM (inactive); in the experiment on HOP-18 it was > 100 µM (inactive); with KM-20L2, 49.3 µM (inactive); with DLD-1, 46.6 µM (inactive). Moreover, the GI50 with M19-MEL was > 100 µM (inactive).
`CC(=O)Oc1ccc2c(=O)c(C(C)=O)coc2c1`: the GI50 was > 100 µM (inactive) with LXFL 529; > 100 µM (inactive) in the experiment with DMS-273; 83.9 µM (inactive) in the experiment with XF498; > 100 µM (inactive) in the experiment with KM-20L2; > 100 µM (inactive) with M19-MEL.
As for `COc1cc(Cc2nccc3cc(OC)c(OC)cc23)c(C(C)=O)cc1OC`, the GI50 was > 750 µM (inactive) in the experiment on RXF 631; 25.5 µM (inactive) in the experiment on LXFL 529; 5.94 µM (inactive) with DMS-114; 14.9 µM (inactive) in the experiment with DMS-273; 12.2 µM (inactive) with XF498; > 300 µM (inactive) in the experiment on HOP-18. Besides, the figures for the GI50 in the experiment on KM-20L2, in the experiment on DLD-1 and with M19-MEL were 56.9 µM (inactive), 136 µM (inactive) and 64.9 µM (inactive), respectively.
`Clc1ccc2c(NCCCCCCNc3ccnc4cc(Cl)ccc34)ccnc2c1`: the GI50 was 2.44 µM (inactive) with RXF 631; 2.33 µM (inactive) in the experiment on LXFL 529; 1.8 µM (inactive) in the experiment on DMS-114; 2.98 µM (inactive) in the experiment on DMS-273; 1.57 µM (inactive) in the experiment on XF498; 1.99 µM (inactive) in the experiment with KM-20L2. The GI50 was 3.03 µM (inactive) with DLD-1 and 3.13 µM (inactive) in the experiment on M19-MEL.
Regarding `COC(=O)NC(=O)c1cn(C2CCCCC2)c(=O)[nH]c1=O`, the GI50 in the experiment on LXFL 529, in the experiment on DMS-114, in the experiment with DMS-273, in the experiment on HOP-18, in the experiment on KM-20L2 and in the experiment with DLD-1 was > 100 µM (inactive) each time. The GI50 in the experiment on M19-MEL was > 100 µM (inactive).
On to `CCCCCCCCCCCCCc1nnn[nH]1`, for which the GI50 is 15.4 µM (inactive) with RXF 631; 17.3 µM (inactive) with LXFL 529; 18.5 µM (inactive) with DMS-114; 15 µM (inactive) with HOP-18; 20.2 µM (inactive) in the experiment on KM-20L2; 17.1 µM (inactive) in the experiment on DLD-1. The GI50 in the experiment on M19-MEL was 19.7 µM (inactive).
Regarding `CC(=O)O[C@]1(C)CCC2C(C)C(=O)OC2C2C(C)[C@@H](O)CC21` (some centres undefined), the GI50 was 21.7 µM (inactive) in the experiment with LXFL 529; 22.4 µM (inactive) in the experiment on DMS-273; 40.6 µM (inactive) in the experiment with HOP-18; 29.3 µM (inactive) in the experiment with KM-20L2; 41.4 µM (inactive) in the experiment with DLD-1; 23.2 µM (inactive) with M19-MEL.
`COc1ccccc1/C=C(\C#N)C(=O)c1ccccc1`: the GI50 in the experiment with DMS-114, in the experiment with DMS-273, with XF498, in the experiment with KM-20L2 and with M19-MEL was > 100 µM (inactive) in each case.
With `NCCn1cnc2nc(NC(=O)c3ccccc3)[nH]c(=O)c21`, the GI50 in the experiment with RXF 631, in the experiment with LXFL 529, in the experiment on DMS-114, with HOP-18, with KM-20L2 and in the experiment on DLD-1 was > 100 µM (inactive) in each case. Moreover, in the experiment with M19-MEL, the GI50 was > 100 µM (inactive).
For `CCOC(=O)c1oc2c(OC)cc(Cl)c3c2c1CCC3`, the GI50 is > 100 µM (inactive) with LXFL 529; > 100 µM (inactive) with DMS-114; 92 µM (inactive) in the experiment on DMS-273; 19.5 µM (inactive) with XF498; > 100 µM (inactive) in the experiment on DLD-1; > 100 µM (inactive) in the experiment on M19-MEL.
Take `Cc1ccc(/C=N/C23CC4CC(CC(C4)C2)C3)cc1`: the GI50 with DMS-114 is 27.5 µM (inactive); in the experiment on DMS-273, > 100 µM (inactive); in the experiment on XF498, 83 µM (inactive); in the experiment on KM-20L2, > 100 µM (inactive); with M19-MEL it was > 100 µM (inactive).
Turning to `Cc1ccc(S(=O)(=O)c2ccc(N)cc2)cc1`, the GI50 with RXF 631, in the experiment on LXFL 529, in the experiment with DMS-273, in the experiment on XF498, with KM-20L2 and in the experiment with DLD-1 was > 100 µM (inactive) each time. Also, the GI50 with M19-MEL was > 100 µM (inactive).
For `O=C1C(=O)N(C2C3CC4CC(C3)CC2C4)C(=O)C(=O)C1c1nc2ccccc2o1` (centres undefined), the GI50 in the experiment with RXF 631 was > 100 µM (inactive); in the experiment on LXFL 529 it was 46.9 µM (inactive); with DMS-114, 19.4 µM (inactive); in the experiment on DMS-273, > 100 µM (inactive); in the experiment on XF498, 74 µM (inactive); with HOP-18, 54.2 µM (inactive). In addition, the GI50 with KM-20L2 is 82 µM (inactive); in the experiment with DLD-1, 37.3 µM (inactive); in the experiment on M19-MEL, 55 µM (inactive).
In the case of `O=c1c2c(nc3n1CCC3)sc1c(O)c(Br)ccc12`, the GI50 in the experiment on DMS-114 is 16.3 µM (inactive); with DMS-273, 14.9 µM (inactive); in the experiment on XF498, 21.5 µM (inactive); in the experiment with HOP-18, > 100 µM (inactive); in the experiment with KM-20L2, 13.5 µM (inactive); in the experiment with DLD-1, 27.7 µM (inactive). In addition, the GI50 in the experiment with M19-MEL is 16.3 µM (inactive).
For the compound `O=C(O)CCNS(=O)(=O)c1ccc2ccccc2c1`, the GI50 in the experiment on LXFL 529, in the experiment on DMS-273, in the experiment with XF498, in the experiment with HOP-18, in the experiment with KM-20L2 and in the experiment with DLD-1 was > 100 µM (inactive) throughout. For the same compound, the GI50 with M19-MEL is > 100 µM (inactive).
Regarding `CCCCCCCCCCCOc1ccc(C(=O)C(=O)c2ccc(OCCCCCCCCCCC)c(OCCCCCCCCCCC)c2)cc1OCCCCCCCCCCC`, the GI50 in the experiment with LXFL 529, in the experiment with DMS-114, in the experiment with DMS-273, in the experiment with XF498, in the experiment on KM-20L2 and in the experiment on DLD-1 was > 100 µM (inactive) in each case. In the experiment with M19-MEL, the GI50 is > 100 µM (inactive).
For `CC(=O)Nc1ccc(C(=O)N2N=C(C)/C(=C/c3ccccc3O)C2=O)cc1`, the GI50 in the experiment with DMS-114 is > 100 µM (inactive); in the experiment on DMS-273 it was > 100 µM (inactive); with XF498, > 100 µM (inactive); with HOP-18 it was 49.3 µM (inactive); with DLD-1, > 100 µM (inactive); in the experiment on M19-MEL it was > 100 µM (inactive).

The values are drawn from ChEMBL document CHEMBL1201862, “PubChem BioAssay data set” (2004).
